From patent US5705185A, “Transdermal delivery of estradiol and process for manufacturing said device” (priority 1996, dated 1998)

Legend:
[1] = tested on: 17-β-hydroxysteroid dehydrogenase; assay: purified 17-β-hydroxysteroid dehydrogenase assay, absorbance at 340nm (NADH); assay type: biochemical; details: propylene glycol 10% in volume
Description: Another experimentation in this field was carried out using purified 17-β-hydroxysteroid dehydrogenase, 17-β-estradiol as a substrate and NAD^+ as a cofactor in the control tubes, in sample tubes 10% in volume of propyleneglycol was added. The continuous monitoring of the increase in the absorbance at 340nm generated by the appearance of NADH was the method used. […] Therefore the inhibition of the conversion is no mediated by a denaturalization process of the enzyme, therefore we postulated that the process of inhibition was governed by competition for NAD^+.

[2] = tested on: enzymatic degradation from estradiol to estrone in human skin; assay: inhibition of the estradiol metabolism in human skin; details: for % Estradiol Metabolized (E1 *100/E1 + E2): 10% PPG; for Inhibition %: 10% PPG versus control; for Estradiol / Estrone: saturated estradiol in saline + 10% PPG, human skin without stratum corneum, n=3; for % estrone formed (percent of estradiol conversion to estrone): n = 4
[3] = in vitro permeation through mouse skin in diffusion chamber; assay type: in vitro ADME, Swiss mice; details: n = 4
Description: […]. The techniques of this permeation studies is described afterwards.
Furthermore, "in vitro" permeation experiments with abdominal mouse skin and human skin were made using the diffusion chamber that is schematically shown in longitudinal section in FIG. 1.
The diffusion chamber illustrated in FIG. 1 comprises a body having front and rear tubular sections 1 and 2 having respective annular end flanges 3 and 4 by which the sections 1 and 2 are joined together. A sample of skin 5, with attached estradiol delivery device D to be tested facing the rear tubular section 2, is clamped between the flanges 3 and 4 by means of a pinch clamp 6.
The tubular section 1 has an internal chamber 7 with an opening 8 furnished with a glass stopper 9. The tubular section 1 has also a jacket 10 through which warm water can be circulated to maintain the contents of the chamber 7 at the desired temperature. The chamber 7 contains a magnetic bar stirrer 11 which is rotatable by means of a magnetic field applied externally means (not shown) to enable the contents of the chamber 7 to be stirred.
The tubular section 2 has a chamber 12 with an opening 13 furnished with a glass stopper 14.
In the assay, the skin of Swiss mice, shaved 72 hours before the experiments, was employed. Also used was human skin obtained from human skin samples (remnants of plastic surgery) which have been eliminated the adipose tissue by scissors, and then was cut to 500 microns by a dermatome.
[…]. Each experiment was started by loading chamber 7 with 5.5 ml of a receptor solution of sodium lauryl sulfate (0.5%), starting the stirrer 11 and taking samples at pre determined periods of time and the subsequent determination of permeated estradiol (by HPLC).

[4] = saturation of estradiol in the coating layer; details: bad appearance, diminished adhesive properties

In the case of `CC(O)CO` (centres unmarked) [Propylene glycol, propylene glycol], the “increase in the absorbance at 340nm (NADH)” value (shortened to “increase in the absorbance”) ([1]; 0 min) was 0, the “effect on purified enzyme activity versus control” value ([1]; 17-β-estradiol substrate, NAD+ cofactor) was “No differences” and the “increase in the absorbance” value ([1]; 1 min) was 15. The “increase in the absorbance” value ([1]; 2 min) was 30, the “increase in the absorbance” value ([1]; 3 min) was 47 and the “increase in the absorbance” value ([1]; 4 min) was 60. For the same compound, the “increase in the absorbance” value ([1]; 5 min) was 72, the “increase in the absorbance” value ([1]; 6 min) was 95 and the “increase in the absorbance” value ([1]; 7 min) was 105. The “increase in the absorbance” value ([1]; 8 min) was 113, the “increase in the absorbance” value ([1]; 9 min) was 120 and the “increase in the absorbance” value ([1]; 10 min) was 125. For the same compound, the “increase in the absorbance” value ([1]; 11 min) was 128, the “increase in the absorbance” value ([1]; 12 min) was 130 and the “% Estradiol Metabolized (E1 *100/E1 + E2)” value ([2]; Exp. 1) was 7.4%. It also gave an Inhibition % ([2]; Exp. 1) of 66.0%, an Estradiol ([2]; Exp. 1) of 3.51 nmol/mL and an Estrone ([2]; Exp. 1) of 0.27 nmol/mL. The “% Estradiol Metabolized (E1 *100/E1 + E2)” value ([2]; Exp. 2) was 6.55%, the Inhibition % ([2]; Exp. 2) was 57.2% and the Estradiol ([2]; Exp. 2) was 2.71 nmol/mL. For the same compound, the Estrone ([2]; Exp. 2) was 0.19 nmol/mL, the “propyleneglycol concentration at which enzymatic conversion of estradiol to estrone is minimized” value ([2]; FIG. 4C) was 10 % wt and the “% estrone formed (percent of estradiol conversion to estrone)” value ([2]; PG 0.25%) was 37.9%. The “% estrone formed (percent of estradiol conversion to estrone)” value ([2]; PG 0.5%) was 33.6%, the “% estrone formed (percent of estradiol conversion to estrone)” value ([2]; PG 1.5%) was 26.8% and the “% estrone formed (percent of estradiol conversion to estrone)” value ([2]; PG 3%) was 20.6%. For the same compound, the “% estrone formed (percent of estradiol conversion to estrone)” value ([2]; PG 5%) was 16.1%, the “% estrone formed (percent of estradiol conversion to estrone)” value ([2]; PG 10%) was 9.2% and the “inhibition of enzymatic degradation of estradiol to estrone” value ([2]; tests conducted by the applicant) was “inhibits the enzymatic mechanism that causes degradation of estradiol to estrone”.

In the case of `C[C@]12CC[C@@H]3c4ccc(O)cc4CC[C@H]3[C@@H]1CC[C@@H]2O` [Estradiol, estradiol], the “Flux through mouse skin at 24h” value ([3]; estradiol concentration 1 wt % in coating layer) was 1.8 ± 0.29 μg/cm^2 *h, the “Flux through mouse skin at 24h” value ([3]; estradiol concentration 1.5 wt % in coating layer) was 2.2 ± 0.25 μg/cm^2 *h and the “Flux through mouse skin at 24h” value ([3]; estradiol concentration 1.75 wt % in coating layer) was 2.8 ± 0.33 μg/cm^2 *h. The “Flux through mouse skin at 24h” value ([3]; estradiol concentration 1.8 wt % in coating layer) was 3.28 ± 0.41 μg/cm^2 *h, the “Flux through mouse skin at 24h” value ([3]; estradiol concentration 2 wt % in coating layer) was 3.31 ± 0.45 μg/cm^2 *h and the “Flux through mouse skin at 24h” value ([3]; estradiol concentration 2.5 wt % in coating layer) was 3.39 ± 0.37 μg/cm^2 *h. The “concentration above which estradiol precipitates in the polymeric matrix” value [4] was “above 2.1 wt %” and the “transformation of estradiol in contact with the enzymes of the skin” value ([2]; permeation through skin) was “enzymatically oxidazed to estrone”.
